11 compounds from ChEMBL document CHEMBL2346534, “Design, synthesis and in vitro anti-proliferative activity of 4,6-quinazolinediamines as potent EGFR-TK inhibitors” (Eur J Med Chem, 2013) can be followed below.
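Note: EGFR tyrosine kinase activity on a poly(Glu,Tyr) substrate, read out by Kinase-Glo Plus luminescence after a 40 min reaction.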

Sequence of Epidermal growth factor receptor (P00533 whole entry): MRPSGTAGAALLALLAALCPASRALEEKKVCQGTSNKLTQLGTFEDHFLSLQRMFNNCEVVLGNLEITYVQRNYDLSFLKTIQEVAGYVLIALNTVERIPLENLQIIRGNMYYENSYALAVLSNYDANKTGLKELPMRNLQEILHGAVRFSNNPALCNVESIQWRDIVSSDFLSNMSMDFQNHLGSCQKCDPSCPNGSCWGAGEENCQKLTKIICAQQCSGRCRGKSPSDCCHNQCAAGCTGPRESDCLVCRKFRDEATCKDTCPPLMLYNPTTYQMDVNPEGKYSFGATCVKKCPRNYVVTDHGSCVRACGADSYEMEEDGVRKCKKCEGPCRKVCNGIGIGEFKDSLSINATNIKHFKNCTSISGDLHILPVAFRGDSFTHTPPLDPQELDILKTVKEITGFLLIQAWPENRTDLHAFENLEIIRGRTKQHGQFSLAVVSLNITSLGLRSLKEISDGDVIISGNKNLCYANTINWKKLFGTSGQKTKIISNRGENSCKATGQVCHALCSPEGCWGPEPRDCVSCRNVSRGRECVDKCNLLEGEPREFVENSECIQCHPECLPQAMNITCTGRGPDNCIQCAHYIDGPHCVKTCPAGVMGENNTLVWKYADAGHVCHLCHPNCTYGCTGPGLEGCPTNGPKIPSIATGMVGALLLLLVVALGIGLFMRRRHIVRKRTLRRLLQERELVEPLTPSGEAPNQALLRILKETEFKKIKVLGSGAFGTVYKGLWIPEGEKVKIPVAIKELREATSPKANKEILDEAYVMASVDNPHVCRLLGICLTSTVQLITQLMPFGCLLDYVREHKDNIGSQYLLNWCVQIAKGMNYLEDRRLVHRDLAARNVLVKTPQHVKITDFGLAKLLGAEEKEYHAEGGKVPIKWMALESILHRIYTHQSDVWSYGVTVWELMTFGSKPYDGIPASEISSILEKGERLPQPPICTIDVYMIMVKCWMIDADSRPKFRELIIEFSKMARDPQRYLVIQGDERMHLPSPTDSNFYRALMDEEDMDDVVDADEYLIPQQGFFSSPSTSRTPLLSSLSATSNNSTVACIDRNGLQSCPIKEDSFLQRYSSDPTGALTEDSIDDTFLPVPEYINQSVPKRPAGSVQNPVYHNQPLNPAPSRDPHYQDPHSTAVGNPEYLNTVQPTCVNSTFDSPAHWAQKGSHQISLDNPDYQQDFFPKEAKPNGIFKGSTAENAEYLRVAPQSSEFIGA

This assay has as its target Epidermal growth factor receptor (Homo sapiens, UniProt P00533). The following applies: at 10 µM.
Description: Inhibition of EGFR tyrosine kinase (unknown origin) using poly (Glu,Tyr) as substrate at 10 uM after 40 mins by Kinase-Glo Plus luminescence kinase assay
Regarding `Nc1ccc2ncnc(Nc3ccccc3Cl)c2c1`, the inhibition (in general, the percentage by which the read-out fell short of the control) is 90%.
The compound `CCOC(=O)C(=CNc1ccc2ncnc(Nc3ccccc3Cl)c2c1)C(=O)OCC` came in with an inhibition of 100%.
Under `CCOC(=O)/C(C#N)=C\Nc1ccc2ncnc(Nc3ccccc3CC)c2c1` stands 84%; under `CCOC(=O)C(=CNc1ccc2ncnc(Nc3ccc(O)cc3)c2c1)C(=O)OCC`, 100%; under `CCOC(=O)/C(C#N)=C\Nc1ccc2ncnc(Nc3cccc(Br)c3)c2c1`, 100%.
In the case of `CCOC(=O)C(=CNc1ccc2ncnc(Nc3ccc(Cl)cc3)c2c1)C(=O)OCC`, the inhibition came out at 82%.
On to `C#Cc1cccc(Nc2ncnc3ccc(NC=C(C(=O)OCC)C(=O)OCC)cc23)c1`, for which the inhibition was found to be 100%.
`CCOC(=O)/C(C#N)=C\Nc1ccc2ncnc(Nc3cccc(O)c3)c2c1` gave an inhibition of 100%.
In the case of `CCOC(=O)C(=CNc1ccc2ncnc(Nc3cccc(Br)c3)c2c1)C(=O)OCC`, the inhibition worked out at 100%.
Under `CCOC(=O)/C(C#N)=C\Nc1ccc2ncnc(Nc3ccc(O)cc3)c2c1` stands 100%; under `CCOC(=O)C(=CNc1ccc2ncnc(Nc3ccc(Cl)cc3Cl)c2c1)C(=O)OCC`, 90%.
